Measurements taken from patent publication US8008354B2, “Death receptor sensitizing compounds and methods of use therefor” (Burnham Institute for Medical Research, priority 2006, dated 2011).

Tests used:
PPC-1 cells [1] = test: Anoikis of PPC-1 cells in suspension versus adherent conditions (annexin V/PI, DAPI, colony formation); type: cell-based, human
Experimental: FIG. 12. Depletion of endogenous FLIP levels by siRNA sensitizes malignant cells to anoikis. (A) PPC-1 cells were seeded in adherent conditions overnight and then transfected with 25 nM anti-FLIP siRNA (siFLIP) or control luciferase siRNA (siCtrl). Thirty hours after transfection, cells were harvested, total protein isolated and analyzed by SDS-PAGE immunoblotting using anti-FLIP and anti-actin antibodies. (B) PPC-1 cells were transfected with increasing concentrations of siFLIP or siCtrl. After transfection, cells were treated with CH-11 Fas activating antibody (100 ng/ml). Thirty hours after incubation, cells were harvested and apoptosis measured by flow cytometry to detect cell surface annexin V expression and PI uptake. Data represents the mean±SEM percent of viable cells. (C) PPC-1 cells were transfected with increasing concentrations of siFLIP or siCtrl. After transfection, cells were subcultured under suspension conditions for 30 hours and then harvested. Apoptosis was measured by flow cytometry to detect cell surface annexin V expression and PI uptake. Data represents the mean±SEM of percent of viable cells. (D) Equal volumes of PPC-1 cells from panel C were replated under adherent conditions to permit clonogenic growth. One week after replating, cells were stained with methylene blue and the number of colonies counted. Data represents the mean±SEM percent of colonies compared to untreated controls.
FIG. 13. Small molecule down-regulation of FLIP sensitizes prostate cancer cells to anoikis. (A) PPC-1 cells were seeded overnight in adherent conditions and then treated with increasing concentrations of 5809354 for 16 hours. After incubation, cells were harvested. Total cellular RNA was extracted and mRNA levels of the long isoform of FLIP (FLIPL), the short isoform of FLIP (FLIPS), or rRNA levels of 18S were detected by real-time RT-PCR. Data were normalized using the ΔΔCT method and expressed as the mean±SEM percent of […] expression relative to untreated controls. (B) PPC-1 cells were cultured and treated as in panel A. Total cellular protein was isolated and analyzed by SDS-PAGE immunoblotting using anti-FLIP and anti-Actin antibodies. (C) PPC-1 cells were seeded overnight in adherent conditions and then exposed to increasing concentrations of 5809354 in the presence or absence of Fas-activating antibody (CH-11, 100 ng/mL). Thirty hours after incubation, cell viability was determined using the MTS assay. Data represents the mean±SEM of percent of viable cells. (D) PPC-1 cells were seeded overnight in adherent or suspension conditions and then treated with increasing concentrations of 5809354 for 30 hours. After incubation, apoptosis was measured by flow cytometry to detect cell surface annexin V expression and PI. Data represents the mean±SEM of percent of viable cells. (E) Cells were harvested, fixed, stained with DAPI, and nuclear morphology analyzed by fluorescence microscopy. Arrowheads refer to fragmented nuclei indicative of apoptosis. […] Thirty hours after incubation, cells were harvested and equal volumes plated in a colony formation assay. One week later, cells were stained with methylene blue and the number of colonies counted. Data represents the mean ±SEM percent of colonies relative to untreated controls.
FIG. 15. 5809354 sensitizes cells to anoikis through a caspase 8 dependent mechanism. (A) PPC-1 cells (5×10^4) were cultured under suspension conditions overnight and then treated with 5809354 in the presence or absence of the pan-caspase inhibitor z-VAD-fink (100 μM). Thirty hours after incubation, anoikis was determined by flow cytometry to detect cell surface annexin V expression and PI uptake. Data represents the mean±SEM percent of viable cells or colonies compared to untreated controls. (B) PPC-1 cells (5×10^4) were cultured in suspension conditions overnight and then treated with 5809354 (60 μM). […]

PPC-1 cells [2] = test: Nuclear fragmentation of suspension PPC-1 cells overexpressing FLIP, CrmA or BclXL; type: cell-based, human; settings: 5809354 60 μM or staurosporine 0.5 μM, thirty hours
Experimental: FIG. 15. 5809354 sensitizes cells to anoikis through a caspase 8 dependent mechanism. (A) PPC-1 cells (5×10^4) were cultured under suspension conditions overnight and then treated with 5809354 in the presence or absence of the pan-caspase inhibitor z-VAD-fink (100 μM). Thirty hours after incubation, anoikis was determined by flow cytometry to detect cell surface annexin V expression and PI uptake. Data represents the mean±SEM percent of viable cells or colonies compared to untreated controls. (B) PPC-1 cells (5×10^4) were cultured in suspension conditions overnight and then treated with 5809354 (60 μM). At increasing times after treatment, caspase activation was detected with FITC-labeled peptides that bind preferentially and irreversibly to caspase 3/7, 8, or 9. Caspase activation was monitored by flow cytometry to quantify the percentage of fluorescently labeled cells. […] At increasing times after incubation, total cellular protein was isolated and analyzed by SDS-PAGE immunoblotting using anti-caspase 8 and anti-actin antibodies. * indicates cleaved caspase 8. […] Thirty hours after incubation, apoptosis was measured by cell surface annexin V expression and PI uptake. […] Ten hours after incubation, cell viability was measured using the MTS assay. […] EGFP expression and nuclear morphology were analyzed by fluorescence microscopy. […]

Compound	sensitization to anoikis (PPC-1 cells [1]; suspension conditions, 30 hours)	effect of z-VAD-fmk on anoikis (PPC-1 cells [1]; suspension conditions, z-VAD-fmk 100 μM)	apoptosis under adherent conditions (PPC-1 cells [1]; up to five days after treatment)	effect of overexpressed FLIP, CrmA or BclXL on anoikis (PPC-1 cells [2])	apoptosis in suspension versus adherent cells (PPC-1 cells [1]; thirty hours)
4-(4-chloro-2-methylphenoxy)-N-hydroxybutanamide [compound 5809354]	sensitized cells to anoikis	z-VAD-fmk inhibited the ability of 5809354 to promote anoikis	did not induce apoptosis	attenuated 5809354-mediated anoikis	
CN[C@@H]1C[C@H]2O[C@@](C)([C@@H]1OC)n1c3ccccc3c3c4c(c5c6ccccc6n2c5c31)C(=O)NC4 [staurosporine, reference compound]				overexpression of BclXL, but not CrmA, protected	did not discriminate between suspension and adherent cells
